In ChEMBL document CHEMBL1909046, “DrugMatrix in vitro pharmacology data”:

Assays:
B2 bradykinin receptor = biological target: T1, B2 bradykinin receptor (Homo sapiens, UniProt P30411); type: cell membranes, Membrane; conditions: chem-1; further: in other assays of this panel Not Active means under 50% inhibition at 10 µM
T1 sequence (P30411 whole entry): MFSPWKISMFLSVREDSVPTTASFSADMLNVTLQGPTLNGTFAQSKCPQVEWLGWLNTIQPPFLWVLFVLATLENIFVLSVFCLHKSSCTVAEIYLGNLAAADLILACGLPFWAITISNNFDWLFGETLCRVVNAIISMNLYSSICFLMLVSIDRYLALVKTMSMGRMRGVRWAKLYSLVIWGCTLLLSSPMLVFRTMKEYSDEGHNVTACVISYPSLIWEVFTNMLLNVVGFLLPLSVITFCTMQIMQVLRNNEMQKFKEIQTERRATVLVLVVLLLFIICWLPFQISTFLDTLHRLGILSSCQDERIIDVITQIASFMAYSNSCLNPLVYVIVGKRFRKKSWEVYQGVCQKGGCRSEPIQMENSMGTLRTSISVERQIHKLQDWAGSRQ

[1] = biological target: T2, 5-hydroxytryptamine receptor 2C (Homo sapiens, UniProt P28335); assay: DRUGMATRIX: Serotonin (5-Hydroxytryptamine) 5-HT2C radioligand binding (ligand: [3H] Mesulergine); type: cell membranes, CHO-K1, Membrane; conditions: cho-k1; Not Active = under 50% inhibition at 10 µM
T2 sequence (P28335 whole entry): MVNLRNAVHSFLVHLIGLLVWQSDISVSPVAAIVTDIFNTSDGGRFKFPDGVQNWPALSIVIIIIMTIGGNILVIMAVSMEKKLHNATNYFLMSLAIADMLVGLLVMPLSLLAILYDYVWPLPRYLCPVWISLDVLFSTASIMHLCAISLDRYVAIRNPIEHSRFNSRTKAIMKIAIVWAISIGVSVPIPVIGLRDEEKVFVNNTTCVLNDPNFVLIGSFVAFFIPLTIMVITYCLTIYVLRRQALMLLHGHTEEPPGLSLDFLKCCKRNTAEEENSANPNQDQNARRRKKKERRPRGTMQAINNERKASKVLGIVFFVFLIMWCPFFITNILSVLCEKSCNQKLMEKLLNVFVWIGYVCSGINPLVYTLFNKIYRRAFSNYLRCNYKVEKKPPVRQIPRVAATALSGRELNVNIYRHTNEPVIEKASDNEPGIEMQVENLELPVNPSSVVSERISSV

[2] = DRUGMATRIX: Calcium Channel Type L, Phenylalkylamine radioligand binding (ligand: [3H] (-)-Desmethoxyverapamil (D-888)); type: cell membranes, Rattus norvegicus, Wistar, Brain, Membrane; conditions: Not Active = under 50% inhibition at 10 µM
[3] = biological target: T3, C-C chemokine receptor type 4 (Homo sapiens, UniProt P51679); type: cell membranes, Chem-1, Membrane; conditions: chem-1; further: in other assays of this panel Not Active means under 50% inhibition at 10 µM
T3 sequence (P51679 whole entry): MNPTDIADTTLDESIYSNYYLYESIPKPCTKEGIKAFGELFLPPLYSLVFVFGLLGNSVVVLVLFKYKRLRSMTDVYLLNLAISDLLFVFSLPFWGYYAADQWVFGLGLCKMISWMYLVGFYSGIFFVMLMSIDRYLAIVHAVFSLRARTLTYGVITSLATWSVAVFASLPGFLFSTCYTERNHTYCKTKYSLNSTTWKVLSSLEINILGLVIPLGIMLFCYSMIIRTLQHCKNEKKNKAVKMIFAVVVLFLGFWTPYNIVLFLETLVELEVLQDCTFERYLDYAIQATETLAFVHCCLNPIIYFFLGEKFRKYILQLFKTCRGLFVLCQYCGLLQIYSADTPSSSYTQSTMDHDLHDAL

[4] = biological target: T4, C-X-C chemokine receptor type 1 (Homo sapiens, UniProt P25024); further: in other assays of this panel Not Active means under 50% inhibition at 10 µM
T4 sequence (P25024 whole entry): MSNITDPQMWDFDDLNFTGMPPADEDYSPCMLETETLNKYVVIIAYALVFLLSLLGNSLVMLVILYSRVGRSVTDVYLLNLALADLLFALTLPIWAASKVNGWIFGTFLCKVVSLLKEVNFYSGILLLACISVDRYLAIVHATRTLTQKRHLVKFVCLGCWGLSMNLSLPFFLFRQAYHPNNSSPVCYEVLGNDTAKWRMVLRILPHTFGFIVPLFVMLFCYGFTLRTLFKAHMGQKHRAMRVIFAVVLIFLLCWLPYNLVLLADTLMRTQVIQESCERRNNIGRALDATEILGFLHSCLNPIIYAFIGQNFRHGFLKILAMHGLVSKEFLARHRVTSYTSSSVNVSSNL

Leukotriene C4 synthase = biological target: T5, Leukotriene C4 synthase (Cavia porcellus, UniProt A6XA80); assay: biochemical; type: tissue-based, Lung;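 further: enzyme inhibition assay of leukotriene C4 synthase, using LTA4 as the substrate; in other assays of this panel Not Active means under 50% inhibition at 10 µM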
T5 sequence (A6XA80 whole entry): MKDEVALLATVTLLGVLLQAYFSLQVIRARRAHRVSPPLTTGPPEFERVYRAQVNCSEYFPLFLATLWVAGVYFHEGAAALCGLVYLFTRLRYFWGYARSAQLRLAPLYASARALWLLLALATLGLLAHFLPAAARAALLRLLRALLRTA

Interstitial collagenase = biological target: T6, Interstitial collagenase (Homo sapiens, UniProt P03956); assay: biochemical; type: tissue-based, Rheumatoid synovial fibroblasts
T6 sequence (P03956 whole entry): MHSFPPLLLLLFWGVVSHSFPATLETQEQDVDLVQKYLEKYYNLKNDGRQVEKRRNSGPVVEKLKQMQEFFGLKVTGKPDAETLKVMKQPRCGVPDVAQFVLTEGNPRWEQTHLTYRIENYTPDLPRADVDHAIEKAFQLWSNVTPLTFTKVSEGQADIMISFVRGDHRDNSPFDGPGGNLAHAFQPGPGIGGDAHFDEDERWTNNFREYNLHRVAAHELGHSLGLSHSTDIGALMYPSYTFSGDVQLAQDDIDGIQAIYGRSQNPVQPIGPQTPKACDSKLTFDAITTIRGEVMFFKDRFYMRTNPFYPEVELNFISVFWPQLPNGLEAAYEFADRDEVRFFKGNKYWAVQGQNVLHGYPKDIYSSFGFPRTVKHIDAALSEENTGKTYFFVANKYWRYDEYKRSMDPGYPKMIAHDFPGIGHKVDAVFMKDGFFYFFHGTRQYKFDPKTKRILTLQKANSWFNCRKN

Estrogen receptor beta = Estrogen receptor beta (Homo sapiens, UniProt Q92731); conditions: sf9; further: in other assays of this panel Not Active means under 50% inhibition at 10 µM
Sequence of Estrogen receptor beta (Q92731 whole entry): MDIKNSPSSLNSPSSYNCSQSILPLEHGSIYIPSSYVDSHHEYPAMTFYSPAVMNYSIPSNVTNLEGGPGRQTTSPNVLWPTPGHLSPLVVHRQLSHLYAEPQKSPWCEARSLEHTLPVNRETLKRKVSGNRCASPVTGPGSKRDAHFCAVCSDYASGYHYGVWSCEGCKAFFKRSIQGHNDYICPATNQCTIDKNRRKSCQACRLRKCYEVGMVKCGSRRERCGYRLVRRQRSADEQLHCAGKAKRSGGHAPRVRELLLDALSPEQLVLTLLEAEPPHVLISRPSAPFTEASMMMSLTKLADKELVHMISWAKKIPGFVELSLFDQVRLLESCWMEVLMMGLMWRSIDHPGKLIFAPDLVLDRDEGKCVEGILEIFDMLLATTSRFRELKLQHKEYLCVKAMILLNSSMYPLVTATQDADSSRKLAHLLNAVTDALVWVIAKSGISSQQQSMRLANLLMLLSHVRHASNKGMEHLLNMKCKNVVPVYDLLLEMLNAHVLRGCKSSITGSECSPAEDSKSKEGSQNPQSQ

COc1ccc(Cl)cc1C(=O)NCCc1ccc(S(=O)(=O)NC(=O)NC2CCCCC2)cc1 [GLYBURIDE]
Not Active: IC50 (B2 bradykinin receptor) | IC50 [1] | IC50 [2] | Ki [2] | IC50 [3] | IC50 [4] | IC50 (Leukotriene C4 synthase) | IC50 (Interstitial collagenase) | IC50 (Estrogen receptor beta)

CHROMIC CHLORIDE
Not Active: IC50 (B2 bradykinin receptor) | Ki (B2 bradykinin receptor) | IC50 [1] | Ki [1] | IC50 [2] | Ki [2] | IC50 [3] | Ki [3] | IC50 [4] | Ki [4] | IC50 (Leukotriene C4 synthase) | Ki (Leukotriene C4 synthase) | IC50 (Interstitial collagenase) | Ki (Interstitial collagenase) | IC50 (Estrogen receptor beta) | Ki (Estrogen receptor beta)

CCN1C[C@]2(COC)[C@H](O)C[C@H](OC)[C@@]34[C@@H]5C[C@@]6(O)[C@H](OC(=O)c7ccccc7)[C@@H]5[C@@](OC(C)=O)([C@@H]([C@H](OC)[C@H]23)[C@@H]14)[C@@H](O)[C@@H]6OC [ACONITINE]
Not Active: IC50 (B2 bradykinin receptor) | IC50 [1] | IC50 [2] | Ki [2] | IC50 [3] | IC50 [4] | IC50 (Leukotriene C4 synthase) | IC50 (Interstitial collagenase) | IC50 (Estrogen receptor beta)

O=C(O)CCc1nc(-c2ccccc2)c(-c2ccccc2)o1 [OXAPROZIN]
Not Active: IC50 (B2 bradykinin receptor) | IC50 [1] | IC50 [2] | Ki [2] | IC50 [3] | IC50 [4] | IC50 (Leukotriene C4 synthase) | IC50 (Interstitial collagenase) | IC50 (Estrogen receptor beta)

C[C@H]1C[C@H]2[C@@H]3CCC4=CC(=O)C=C[C@]4(C)[C@@]3(F)[C@@H](O)C[C@]2(C)[C@@]1(O)C(=O)CO [BETAMETHASONE]
Not Active: IC50 (B2 bradykinin receptor) | IC50 [1] | IC50 [2] | Ki [2] | IC50 [3] | IC50 [4] | IC50 (Leukotriene C4 synthase) | IC50 (Interstitial collagenase)

Oc1ccccc1 [PHENOL]
Not Active: IC50 (B2 bradykinin receptor) | IC50 [1] | IC50 [2] | Ki [2] | IC50 [3] | IC50 [4] | IC50 (Leukotriene C4 synthase) | IC50 (Interstitial collagenase)

CNC[C@H](O)c1ccc(O)c(O)c1 [EPINEPHRINE]
Not Active: IC50 (B2 bradykinin receptor) | IC50 [1] | IC50 [2] | Ki [2] | IC50 [3] | IC50 [4] | IC50 (Leukotriene C4 synthase) | IC50 (Interstitial collagenase)

C=CCO [ALLYL ALCOHOL]
Not Active: IC50 (B2 bradykinin receptor) | IC50 [1] | IC50 [2] | Ki [2] | IC50 [3] | IC50 [4] | IC50 (Leukotriene C4 synthase) | IC50 (Interstitial collagenase)

COC(=O)Nc1nc2ccc(Sc3ccccc3)cc2[nH]1 [FENBENDAZOLE]
Not Active: IC50 (B2 bradykinin receptor) | IC50 [1] | IC50 [2] | Ki [2] | IC50 [3] | IC50 [4] | IC50 (Leukotriene C4 synthase) | IC50 (Interstitial collagenase)

O=c1[nH]cnc2c1ncn2[C@H]1CC[C@@H](CO)O1 [DIDANOSINE]
Not Active: IC50 (B2 bradykinin receptor) | IC50 [1] | IC50 [2] | Ki [2] | IC50 [3] | IC50 [4] | IC50 (Leukotriene C4 synthase) | IC50 (Interstitial collagenase)

O=C1c2ccccc2C(=O)C1c1ccccc1 [PHENINDIONE]
Not Active: IC50 (B2 bradykinin receptor) | IC50 [1] | IC50 [2] | Ki [2] | IC50 [3] | IC50 [4] | IC50 (Leukotriene C4 synthase) | IC50 (Interstitial collagenase)

ClC1=C(Cl)[C@]2(Cl)[C@@H]3[C@@H]4C[C@@H]([C@H]5O[C@@H]45)[C@@H]3[C@@]1(Cl)C2(Cl)Cl [DIELDRIN]
Not Active: IC50 (B2 bradykinin receptor) | IC50 [1] | IC50 [2] | Ki [2] | IC50 [3] | IC50 [4] | IC50 (Leukotriene C4 synthase) | IC50 (Interstitial collagenase)

Nc1ccc(C(=O)O)c(O)c1 [AMINOSALICYLIC ACID]
Not Active: IC50 (B2 bradykinin receptor) | IC50 [1] | IC50 [2] | Ki [2] | IC50 [3] | IC50 [4] | IC50 (Leukotriene C4 synthase) | IC50 (Interstitial collagenase)
